TGI data for six compounds are collected here from PubChem BioAssay (NCI).

Test systems include HS 578T breast; OVCAR-5 ovarian; SN12C renal; DU-145 prostate; SF-295 CNS; SK-MEL-2 melanoma; RXF 393 renal; CAKI-1 renal; U251 CNS; 786-0 renal; KM12 colon; NCI-H460 lung; NCI/ADR-RES ovarian; PC-3 prostate; UO-31 renal; T-47D breast; SF-539 CNS; K-562 leukemia; CCRF-CEM leukemia; MALME-3M melanoma.
Holding throughout (experiment): NCI anticancer screen, dose series, 48 h

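Interpolation was linear, between the two tested concentrations surrounding the appropriate level; five concentrations were tested over 48 hours in 96-well plates. At the TGI there is no net growth.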 Some results are limits rather than exact numbers.

In the case of `Cc1nc(Nc2ccccc2Cl)sc1C(=O)CC(=O)C(=O)Nc1c(Cl)cccc1Cl`, the TGI with HS 578T breast was above 100 µM; with OVCAR-5 ovarian, above 100 µM; in the test with SN12C renal, above 100 µM; in the test on DU-145 prostate, above 100 µM; with SF-295 CNS, above 100 µM; in the test on SK-MEL-2 melanoma, 56.2 µM. The TGI in the test on RXF 393 renal was 92.9 µM; with CAKI-1 renal it was above 100 µM; with U251 CNS, 64.3 µM; in the test on 786-0 renal, 66 µM; with KM12 colon, 91.4 µM; in the test with NCI-H460 lung it was above 100 µM. The TGI in the test with NCI/ADR-RES ovarian was 54.1 µM; with PC-3 prostate, above 100 µM; in the test with UO-31 renal, 86.1 µM; with T-47D breast, 71.6 µM; with SF-539 CNS it was 83 µM; in the test on K-562 leukemia it was above 100 µM. In addition, in the test on CCRF-CEM leukemia, the TGI was above 100 µM.

Take `COc1ccc(C2CC(c3ccccc3)=Nc3c(-c4ccccc4)nnn32)cc1` (centres undefined): the TGI in the test on HS 578T breast, in the test on OVCAR-5 ovarian, with SN12C renal, in the test with DU-145 prostate, with SF-295 CNS and with SK-MEL-2 melanoma was above 100 µM each time. Also, the TGI in the test with CAKI-1 renal, with U251 CNS, with 786-0 renal, with KM12 colon, in the test with NCI-H460 lung and in the test with NCI/ADR-RES ovarian was above 100 µM in each case. For the same compound, the TGI in the test with PC-3 prostate is above 100 µM; in the test on UO-31 renal, above 100 µM; with T-47D breast it was 59.6 µM; with SF-539 CNS it was above 100 µM; in the test on K-562 leukemia, above 100 µM; with CCRF-CEM leukemia, above 100 µM.

Consider `c1ccc2c(c1)nc1n2CCCn2ccnc2-1`, for which the TGI in the test with HS 578T breast, in the test on OVCAR-5 ovarian, in the test with SN12C renal, in the test with DU-145 prostate, with SF-295 CNS and in the test on SK-MEL-2 melanoma was above 100 µM each time. Besides, the TGI in the test with RXF 393 renal, with U251 CNS, in the test on 786-0 renal, in the test with MALME-3M melanoma, in the test with KM12 colon and in the test on NCI-H460 lung was above 100 µM throughout. For the same compound, the TGI in the test with NCI/ADR-RES ovarian, in the test on PC-3 prostate, in the test with UO-31 renal, with T-47D breast, in the test with SF-539 CNS and in the test on K-562 leukemia was above 100 µM in each case.

For `O=C1C(N2CCNCC2)=C(Cl)C(=O)c2ncccc21`, the TGI in the test with HS 578T breast, with OVCAR-5 ovarian, in the test with SN12C renal, in the test with DU-145 prostate, in the test with SF-295 CNS and in the test with SK-MEL-2 melanoma was above 10 µM throughout. For the same compound, the TGI in the test with RXF 393 renal, with CAKI-1 renal, in the test on U251 CNS, in the test on 786-0 renal, in the test on MALME-3M melanoma and with KM12 colon was above 10 µM each time. The TGI with NCI-H460 lung, in the test with PC-3 prostate, in the test with T-47D breast, in the test on SF-539 CNS, in the test with K-562 leukemia and with CCRF-CEM leukemia was above 10 µM throughout.

As to `CC(=O)Nc1ccc(NC(=O)c2c(Cl)c(Cl)c(Cl)c(Cl)c2-c2nc3ccccc3[nH]2)cc1`, the TGI in the test with HS 578T breast is above 100 µM; in the test on OVCAR-5 ovarian, above 100 µM; with SN12C renal, above 100 µM; with DU-145 prostate it was above 100 µM; in the test on SF-295 CNS, above 100 µM; in the test on RXF 393 renal it was 81.5 µM. For the same compound, the TGI with CAKI-1 renal, in the test with 786-0 renal, in the test on MALME-3M melanoma, in the test with KM12 colon, with NCI-H460 lung and in the test on PC-3 prostate was above 100 µM each time. The TGI with UO-31 renal, in the test with T-47D breast, with SF-539 CNS, in the test on K-562 leukemia and in the test with CCRF-CEM leukemia was above 100 µM each time.

For `COC(=O)C1(c2cc3ccccc3n2S(=O)(=O)c2ccccc2)CC2C=CC1NC2` (centres undefined), the TGI in the test with HS 578T breast is above 25.9 µM; in the test on OVCAR-5 ovarian, 6.37 µM; in the test on SN12C renal, 4.69 µM; in the test with DU-145 prostate it was 6.62 µM; in the test on SF-295 CNS, 10.2 µM; in the test with SK-MEL-2 melanoma, 3.63 µM. The TGI is 3.5 µM in the test with RXF 393 renal; 4.27 µM in the test with CAKI-1 renal; 2.75 µM in the test with U251 CNS; 2.9 µM in the test with 786-0 renal; above 22.8 µM in the test with MALME-3M melanoma; 8.29 µM in the test with KM12 colon. Moreover, the TGI in the test on NCI-H460 lung is above 29.6 µM; in the test on NCI/ADR-RES ovarian it was 6.95 µM; in the test with PC-3 prostate it was 3.05 µM; in the test on UO-31 renal, 2.86 µM; in the test with T-47D breast, 13.5 µM; in the test on SF-539 CNS it was 3.55 µM. This compound showed a TGI in the test on K-562 leukemia of 5.01 µM.
